The target of assay [1] is T1, receptor tyrosine kinase EGFR (Homo sapiens, UniProt P00533).
T1 construct: purchased Shanghai 3bio Technology Co., Ltd. Lot No. 4018780925
Nature of the assay: Inhibitory effect on receptor tyrosine kinase EGFR (ELISA, Poly(Glu, Tyr)4:1, PY99 antibody). The note with it: ATP 4 μM, 1 hour at 37° C. The class given is biochemical. As to the method: Poly(Glu, Tyr)4:1 was diluted into 100 μg/ml by PBS without potassium. Enzyme label plate was coated with 37 μl/well at 37° C. overnight,
The liquid in the wells was removed. The plate was rinsed by T-PBS for 5 minutes, and dried at 37° C. after repeated 3 times.
The testing sample was diluted to the concentration concerned by reaction buffer solution, and added into the wells of the coated enzyme label plate. The concentration diluted should realize 1.0000 μg/ml, 0.1250 μg/ml, 0.0156 μg/ml, 0.00195 μg/ml and 0.00024 μg/ml in the 100 μl reaction.
Adding in ATP solution (4 μM of final concentration) diluted by reaction buffer solution,
Finally, the tyrosine kinase diluted by reaction buffer solution was added, and forming the reaction with 100 μl total volume.
Meanwhile, negative control wells and enzyme-free control wells were prepared. The reaction was kept in the dark wet box for 1 hour at 37° C. The plate was rinsed by T-PBS for three times after the reaction ended, and blocked by 1% BSA […] for 30 min, and then, PY99 antibody (1:1000 diluted by 0.05% PBST with 1% BSA) was added in 100 μl/well. After incubated at 37° C. for 30 minutes, the plate was rinsed by T-PBS for three times, and the goat anti-mouse IgG marked with HRP (1 mg/ml 1:1000 diluted by 0.05% PBST with 1% BSA) was then added in 100 μl/well. After incubated at 37° C. for 30 minutes, the plate was rinsed by T-PBS for three times.
Colorimetric solution OPD was added in 100 μl/well for 20 minutes' reaction in the dark side at the room temperature. Colorimetric substrate solution OPD was the solution of 0.1 mol/L citric acid-disodium hydrogen phosphate buffer (pH 5.0) with 20 mmol/L OPD and 12 mmol/L H2O2 (freshly prepared when using).
50 μl of 2M H2SO4 (2 mol/L sulfuric acid containing 0.1 mol/L sodium sulfate) was added in to terminate the reaction, and the A492 value was read with adjustable wavelength micro late enzyme-labeling instrument VERSAmax.
The inhibition rate of samples is calculated by the following formula: […]

For assay [2], the system named is Human lung cancer cells (A549). Nature of the assay: Anticancer effect in vitro on A549 cells (MTT, GI50). It is filed as cell-based. As to conditions: A549, 72 hours. The protocol:
The inhibitory effect on the cancer cells of the compounds prepared in Example 1-Example 13, Example 20, Example 48, Example 49 and Example 57 was determined in vitro using cancer cells. The results are shown in table 2, and the specific detection methods are as follows:
Human lung cancer cells were (A549, purchased from Shanghai FuMeng Gene Bio-technology Co., Ltd.) cultured in DMEM containing 2 m M/L-glutamine and 10% FBS, and inoculated in 96-well plate, 200 μL/well and 2000 cells per well; the plate was preincubated for 24 hours under the condition of 5% CO2 and 100% relative humidity at 37° C., allowing for cell adherence.
When the cells adhered, the supernatant was removed, and 200 μL drug-containing culture medium was added with different concentration of compounds into each well (in concentration of 20 μg/ml, 12.5 µg/ml, 6.25 μg/ml, […], 1.5625 μg/ml and 0.78125 μg/ml), 3 multiple wells were set up for each drug concentration as well as blank control (cell culture medium without cells), and drug-free control (with no drugs, filled with complete medium in equal amount only), cultured for 72 hours under the condition of 5% CO2 incubator at 37° C. (100% relative humidity).
After the culture ended, the supernatant was carefully removed, and adding 200 μl DMEM culture medium containing 3% FBS with 500 μg/ml MTT into each well, and culturing for 4 hours under the condition of 5% CO2 incubator at 37° C. (100% relative humidity). After the supernatant was discarded, 150 μL DMSO was added in each well for solving. the GI50 value was measured by detecting the absorbance in the 570 nm wavelength.

A value given as a limit tells only on which side of the number the result lay.

T1 sequence (P00533 25-1210): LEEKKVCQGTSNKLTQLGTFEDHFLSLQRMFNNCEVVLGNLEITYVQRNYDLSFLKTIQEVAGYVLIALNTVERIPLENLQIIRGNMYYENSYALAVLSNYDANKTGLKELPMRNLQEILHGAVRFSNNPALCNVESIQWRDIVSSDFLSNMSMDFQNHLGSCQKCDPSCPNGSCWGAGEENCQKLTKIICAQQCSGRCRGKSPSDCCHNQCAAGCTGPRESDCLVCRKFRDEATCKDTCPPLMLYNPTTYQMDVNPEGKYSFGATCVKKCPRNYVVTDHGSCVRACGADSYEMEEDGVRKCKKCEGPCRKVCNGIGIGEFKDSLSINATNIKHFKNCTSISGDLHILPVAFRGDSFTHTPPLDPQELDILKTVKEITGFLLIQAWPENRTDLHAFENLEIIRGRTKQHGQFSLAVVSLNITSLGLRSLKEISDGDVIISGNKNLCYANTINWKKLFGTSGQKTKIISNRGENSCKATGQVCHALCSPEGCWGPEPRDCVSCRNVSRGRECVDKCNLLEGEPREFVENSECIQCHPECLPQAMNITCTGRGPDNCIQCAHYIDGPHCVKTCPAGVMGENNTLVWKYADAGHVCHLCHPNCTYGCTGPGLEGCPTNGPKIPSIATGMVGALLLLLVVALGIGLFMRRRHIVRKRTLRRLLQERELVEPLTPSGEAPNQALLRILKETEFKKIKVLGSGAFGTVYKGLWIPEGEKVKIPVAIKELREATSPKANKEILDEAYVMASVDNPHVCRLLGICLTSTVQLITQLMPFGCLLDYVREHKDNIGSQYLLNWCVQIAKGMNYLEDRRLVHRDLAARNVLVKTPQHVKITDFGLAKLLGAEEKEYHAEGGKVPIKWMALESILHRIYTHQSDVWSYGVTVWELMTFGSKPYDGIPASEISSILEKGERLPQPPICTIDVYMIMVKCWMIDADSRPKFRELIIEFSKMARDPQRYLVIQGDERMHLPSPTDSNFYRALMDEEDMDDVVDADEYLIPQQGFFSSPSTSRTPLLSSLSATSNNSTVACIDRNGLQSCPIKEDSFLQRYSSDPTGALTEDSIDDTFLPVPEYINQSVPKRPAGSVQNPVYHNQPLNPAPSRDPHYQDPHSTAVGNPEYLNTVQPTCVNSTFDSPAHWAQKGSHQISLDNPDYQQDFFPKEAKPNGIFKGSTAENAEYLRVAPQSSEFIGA

In turn, `COc1cc2ncnc(Nc3ccc(F)c(Cl)c3)c2cc1OCCN1CCC2(COC2)C1` [Example 3, 4-(3′-chloro-4′-fluorophenylamino)-6-[2-(2-oxa-6-azaspiro[3.4]octane-6-yl)-oxethyl]-7-methoxyquinazoline] registered an IC50 in assay [1] of 0.1 to 1 µM. In assay [2], this molecule registered a GI50 of 10.2 µM.

For the molecule `COc1cc2ncnc(Nc3ccc(F)c(Cl)c3)c2cc1OCCCN1CCC2(CCOC2)C1` (stereo not shown) [Example 7, 4-(3′-chloro-4′-fluorophenylamino)-6-[3-(2-oxa-7-azaspiro[4.4]nonane-7-yl)-propoxy]-7-methoxyquinazoline], in assay [1], the IC50 was 0.01 to 0.1 µM. The GI50 in assay [2] stood at 15.1 µM.

In turn, `COc1cc2ncnc(Nc3ccc(F)c(Cl)c3)c2cc1OCCCN1CC2(COC2)C1` [Example 1, 4-(3′-chloro-4′-fluorophenylamino)-6-[3-(2-oxa-6-azaspiro[3.3]heptane-6-yl)-propoxy]-7-methoxyquinazoline] returned a 50% inhibitory concentration (IC50) in assay [1] of 0.01 to 0.1 µM. The same molecule had a GI50 in assay [2] of 39.7 µM.

For the molecule `COc1cc2ncnc(Nc3ccc(F)c(Cl)c3)c2cc1OCCN1CC2(CNC(=O)C2)C1` [Example 57, 4-(3′-chloro-4′-fluorophenylamino)-6-[2-(2,6-diazaspiro[3.4]octane-7-ketone-2-yl)-oxethyl]-7-m ethoxyquinazoline], the IC50 in assay [1] was over 1 µM. This molecule also returned a GI50 in assay [2] of 23.8 µM.

In the case of `COc1cc2ncnc(Nc3ccc(F)c(Cl)c3)c2cc1OCCN1CCC2(CCOC2)C1` (stereo not shown) [Example 8, 4-(3′-chloro-4′-fluorophenylamino)-6-[2-(2-oxa-7-azaspiro[4.4]nonane-7-yl)-oxethyl]-7-methoxyquinazoline], the IC50 in assay [1] was in the range of 0.01 to 0.1 µM. The molecule further came in with a GI50 in assay [2] of 23.4 µM.

In assay [1], `COc1cc2ncnc(Nc3ccc(F)c(Cl)c3)c2cc1OCCN1CCC2(CC1)COC2` [Example 6] yielded an IC50 of 0.01 to 0.1 µM. Besides, the GI50 in assay [2] is 20.7 µM.

In assay [1], `COc1cc2ncnc(Nc3ccc(F)c(Cl)c3)c2cc1OCCN1CCC2(CC1)CC(=O)N(C)C2` [Example 56, 4-(3′-chloro-4′-fluorophenylamino)-6-[2-(2-methyl-2,8-diazaspiro[4.5]decane-2-ketone-8-yl)-oxethyl]-7-methoxyquinazoline] came in with an IC50 of over 1 µM.

In the case of `[2H]C([2H])([2H])Oc1cc2ncnc(Nc3ccc(F)c(Cl)c3)c2cc1OCCCN1CC2(C1)CN(C)C(=O)O2` [Example 98, 4-(3′-chloro-4′-fluorophenylamino)-6-[3-(7-methyl-5-oxa-2,7-diazaspiro[3.4]octane-6-ketone-2-yl)-propoxy]-7-deuterated methoxyquinazoline], the IC50 in assay [1] lay in the range of 0.0001 to 0.01 µM.

`COc1cc2ncnc(Nc3ccc(F)c(Cl)c3)c2cc1OCCCN1C[C@@H]2CN(C(=O)OC(C)(C)C)C[C@@H]2C1` [Example 88, 4-(3′-chloro-4′-fluorophenylamino)-6-[3-(5-tertbutyloxycarbonyl-hexahydropyrrolo[3,4-c]pyrrole-2-yl)-propoxy]-7-methoxyquinazoline] returned an IC50 in assay [1] of over 1 µM.

The molecule `C#Cc1cccc(Nc2ncnc3cc(OC)c(OCCCN4CCC5(CCOCC5)C4)cc23)c1` [Example 41, 4-(3′-ethynylphenylamino)-6-[3-(8-oxa-2-azaspiro[4.5]decane-2-yl)-propoxy]-7-methoxyquinazoline] registered an IC50 in assay [1] of 0.1 to 1 µM.

In turn, `C#Cc1cccc(Nc2ncnc3cc(OC)c(OCCCN4CC[C@H]5OCC[C@H]54)cc23)c1` (relative stereo) [Example 50, 4-(3′-ethynylphenylamino)-6-[3-(cis-hexahydrofuro[3,2-b]pyrrole-4-yl)-propoxy]-7-methoxyquinazoline] registered an IC50 in assay [1] of 0.0001 to 0.01 µM.

`COc1cc2ncnc(Nc3cc(Cl)ccc3F)c2cc1OCCCN1CC2(COC2)C1` [Example 14, 4-(5′-chloro-2′-fluorophenylamino)-6-[3-(2-oxa-6-azaspiro[3.3]heptane-6-yl)-propoxy]-7-methoxyquinazoline] gave an IC50 in assay [1] of 0.0001 to 0.01 µM.

With `COc1cc2ncnc(Nc3ccc(F)c(Cl)c3)c2cc1OCCCN1CCC2(CC1)CNC(=O)C2` [Example 79], the IC50 in assay [1] was in the range of 0.0001 to 0.01 µM.

For `COc1cc2ncnc(Nc3cccc(Cl)c3F)c2cc1OCCCN1CCC2(CCC(=O)N2)CC1` [Example 32, 4-(3′-chloro-2′-fluorophenylamino)-6-[3-(1,8-diazaspiro[4.5]decane-2-ketone-8-yl)-propoxy]-7-methoxyquinazoline], the 50% inhibitory concentration (IC50) in assay [1] is 0.01 to 0.1 µM.

The molecule `COc1cc2ncnc(Nc3cc(Cl)ccc3F)c2cc1OCCCN1CCC2(CCNC2=O)C1` (stereo not shown) [Example 22, 4-(5′-chloro-2′-fluorophenylamino)-6-[3-(2,7-diazaspiro[4.4]nonane-1-ketone-7-yl)-propoxy]-7-methoxyquinazoline] gave an IC50 in assay [1] of 0.01 to 0.1 µM.

`COc1cc2ncnc(Nc3ccc(F)c(Cl)c3)c2cc1OCCCN1CCC2(CC1)CNC(=O)O2` [Example 87, 4-(3′-chloro-4′-fluorophenylamino)-6-[3-(1-oxa-3,8-diazaspiro[4.5]decane-2-ketone-8-yl)-propoxy]-7-methoxyquinazoline]: in assay [1], the IC50 is 0.01 to 0.1 µM.

`C#Cc1cccc(Nc2ncnc3cc(OC)c(OCCCN4C5CCC4COC5)cc23)c1` [Example 42, 4-(3′-ethynylphenylamino)-6-[3-(3-oxa-8-azabicyclo[3.2.1]octane-8-yl)-propoxy]-7-methoxyquinazoline] came in with an IC50 in assay [1] of 0.1 to 1 µM.

The molecule `COc1cc2ncnc(Nc3ccc(F)c(Cl)c3)c2cc1OCCCN1CCC2(CCN(C(C)=O)C2)C1` (stereo not shown) [Example 92, 4-(3′-chloro-4′-fluorophenylamino)-6-[3-(7-acetyl-2,7-diazaspiro[4.4]-nonane-2-yl)-propoxy]-7-methoxyquinazoline] had an IC50 in assay [1] of 0.01 to 0.1 µM.

In assay [1], `COc1cc2ncnc(Nc3ccc(F)c(Cl)c3)c2cc1OCCCN1CC[C@H]2OCC[C@H]21` (relative stereo) [Example 78, 4-(3′-chloro-4′-fluorophenylamino)-6-[3-(cis-hexahydrofuro[3,2-b]pyrrole-4-yl)-propoxy]-7-methoxyquinazoline] came in with an IC50 of 0.01 to 0.1 µM.

`COc1cc2ncnc(Nc3cc(Cl)ccc3F)c2cc1OCCCN1CCC2(COC2)C1` [Example 65]: the IC50 in assay [1] was in the range of 0.01 to 0.1 µM.

In assay [1], `COc1cc2ncnc(Nc3cc(Cl)ccc3F)c2cc1OCCCN1CC2(CCOCC2)C1` [Example 18, 4-(5′-chloro-2′-fluorophenylamino)-6-[3-(7-oxa-2-azaspiro[3.5]-nonane-2-yl)-propoxy]-7-methoxyquinazoline] yielded an IC50 of 0.01 to 0.1 µM.

In turn, `COc1cc2ncnc(Nc3cccc(Cl)c3F)c2cc1OCCCN1CCC2(C1)CN(C)C(=O)O2` (stereo not shown) [Example 35, 4-(3′-chloro-2′-fluorophenylamino)-6-[3-(3-methyl-1-oxa-3,7-diazaspiro[4.4]nonane-2-ketone-7-yl)-propoxy]-7-methoxycquinazoline] displayed an IC50 in assay [1] of 0.0001 to 0.01 µM.

In assay [1], `COc1cc2ncnc(Nc3ccc(F)c(Cl)c3)c2cc1OCCCN1CC2(CNC(=O)C2)C1` [Example 86, 4-(3′-chloro-4′-fluorophenylamino)-6-[3-(2,6-diazaspiro[3.4]octane-7-ketone-2-yl)-propoxy]-7-methoxyquinazoline] yielded an IC50 of 0.01 to 0.1 µM.

`[2H]C([2H])([2H])Oc1cc2ncnc(Nc3ccc(F)c(Cl)c3)c2cc1OCCCN1CCC2(CC1)CNC(=O)O2` [Example 95, 4-(3′-chloro-4′-fluorophenylamino)-6-[3-(1-oxa-3,8-diazaspiro[4.5]decane-2-ketone-8-yl)-propoxy]-7-deuterated methoxyquinazoline]: the IC50 in assay [1] lay within 0.01 to 0.1 µM.

Take `COc1cc2ncnc(Nc3ccc(F)c(Cl)c3)c2cc1OCCCN1CCC2(CC1)CNC(=O)C2` [Example 94, 4-(3′-chloro-4′-fluorophenylamino)-6-[3-(2,8-diazaspiro[4.5]decane-3-ketone-8-yl)-propoxy]-7-methoxyquinazoline]: the half-inhibitory concentration (IC50) in assay [1] lay in the range of 0.01 to 0.1 µM.
